Measurements from PubChem BioAssay AID2060497 (Molecular Pharmacology Branch, DTP, NCI, 2025).

Tested on: 317291-083-R-J1-PDC complex spheroids, viability
Test: Anticancer human tumor 317291-083-R-J1-PDC patient-derived soft tissue sarcoma cell line growth inhibition [GQUAD]
Conditions: for IC50: curve of first compound; for viability, T/C: stronger effect = lower value
Source text: DNA G-quadruplex Stabilizer Agents in Combinations in Complex Spheroids
A high-throughput screen of multi-cell type tumor spheroids was designed to identify active combinations of DNA G-quadruplex stabilizer agents and targeted small molecules. Complex spheroids include a stromal component modeled by human endothelial cells (HUVEC) and fibroblasts modeled by human mesenchymal stem cells (MSCs). The concentration ranges selected for each drug and investigational agent were based upon clinically achievable concentrations if the clinical Cmax of the agent was known.
Compounds. The drugs and investigational agents: pidnarulex (CX-5461; NSC782164), APTO-253 (NSC789042), BRACO-19 (NSC847499), peposertib (NSC802822), ceralasertib (NSC780249), elimusertib (NSC800525), camonsertib (NSC841442), AZD-1390 (NSC803789), olaparib (NSC753686), talazoparib (NSC767125), ART-558 (NSC835418), sotorasib (NSC818433), MRTX-1133 (NSC836407), SN-38 (NSC673596), topotecan (NSC609699), etoposide (NSC141540), doxorubicin (NSC123127), gemcitabine (NSC613327), 5-fluorouracil (NSC19893), paclitaxel (NSC125973), vemurafenib (NSC761431), panobinostat (NSC761190), R-306465 (JNJ-16241199; NSC773264), adavosertib (NSC754352), TP-3654 (NSC805149), carboplatin (NSC241240), KSQ-4279 (NSC840948), and staurosporine (NSC755774) were obtained from the National Cancer Institute (NCI) Developmental Therapeutics Program Chemical Repository (34). The FDA-approved anticancer drug set is available from the NCI Developmental Therapeutics Program. […] The stock solutions were prepared in dimethyl sulfoxide (DMSO, Sigma-Aldrich, St. Louis, MO, cat. D2650) at 800-fold the tested concentration and stored at -70 degrees C prior to their use. All drugs and investigational agents were tested over a range starting from a high concentration at or near the clinical Cmax and decreasing in half-log increments. If the clinical Cmax for an agent had not been determined, the highest concentration tested was 10 microM.
2.3 Cell Culture. All cells were maintained in an incubator at 37 degrees C and 5% CO2 with 95% humidity. The PDC lines were cultured according to standard operating procedures established by the NCI PDMR. All PDCs were thawed and cultured in Matrigel-coated flasks prepared with a working solution of 1X Ham's F-12 nutrient mix, without supplementation (Invitrogen, cat. 11765054), 100 U/mL penicillin-streptomycin (Invitrogen, cat. 15140122), and 2.5% Matrigel (Corning Inc., cat. 354248) for the first three passages. The 857933-349-R-J2-PDC line was cultured in 6C/Colon 1B media, which includes advanced DMEM/F-12 (Thermo Fisher Scientific, cat. 12634028), 10 mM HEPES (Thermo Fisher Scientific, cat. 15630080), 1X GlutaMAX supplement (Thermo Fisher Scientific, cat. 35050061), 0.1 mg/mL primocin (InvivoGen, cat. ant-pm-2), 10% defined fetal bovine serum, heat inactivated (HyClone Laboratories Inc., cat. SH30070.03HI), 50% L-WRN conditioned media (ATCC, cat. CRL-3276), 1.25 mM N-Acetyl-L-cysteine (Sigma-Aldrich, cat. A9165), 10 mM nicotinamide (Sigma-Aldrich, cat. N0636), 1X B-27 supplement (Thermo Fisher Scientific, cat. 17504044), 1X N-2 supplement (Thermo Fisher Scientific, cat. 17502048), 10 microM Y-27632 dihydrochloride (Tocris Bioscience, cat. 1254), and 50 ng/mL human EGF recombinant protein (Thermo Fisher Scientific, cat. PHG0311). The 485176-168-R4-J1-PDC line was cultured in Panc media, which includes all 6C/Colon 1B media components plus 100 ng/mL human FGF-10 (Thermo Fisher Scientific, cat. 100-26), 500 nM SB-431542 (Selleckchem, cat. S1067), and gastrin (Tocris, cat. 3006).
[…]

[1] = second compound 0.0316 µM, first compound 0.000999 µM
[2] = second compound 0.0316 µM, first compound 0.00316 µM
[3] = second compound 0.0316 µM, first compound 0.00999 µM
[4] = second compound 0.0316 µM, first compound 0.0316 µM
[5] = second compound 0.0316 µM, first compound 0.0999 µM
[6] = second compound 0.0316 µM, first compound 0.316 µM
[7] = second compound 0.1 µM, first compound 0.000999 µM
[8] = second compound 0.1 µM, first compound 0.00316 µM
[9] = second compound 0.1 µM, first compound 0.00999 µM
[10] = second compound 0.1 µM, first compound 0.0316 µM
[11] = second compound 0.1 µM, first compound 0.0999 µM
[12] = second compound 0.1 µM, first compound 0.316 µM
[13] = second compound 0.316 µM, first compound 0.000999 µM
[14] = second compound 0.316 µM, first compound 0.00316 µM
[15] = second compound 0.316 µM, first compound 0.00999 µM
[16] = second compound 0.316 µM, first compound 0.0316 µM
[17] = second compound 0.316 µM, first compound 0.0999 µM
[18] = second compound 0.316 µM, first compound 0.316 µM
[19] = second compound 1 µM, first compound 0.000999 µM
[20] = second compound 1 µM, first compound 0.00316 µM
[21] = second compound 1 µM, first compound 0.00999 µM
[22] = second compound 1 µM, first compound 0.0316 µM
[23] = second compound 1 µM, first compound 0.0999 µM
[24] = second compound 1 µM, first compound 0.316 µM
[25] = second compound 3.16 µM, first compound 0.000999 µM
[26] = second compound 3.16 µM, first compound 0.00316 µM
[27] = second compound 3.16 µM, first compound 0.00999 µM
[28] = second compound 3.16 µM, first compound 0.0316 µM
[29] = second compound 3.16 µM, first compound 0.0999 µM
[30] = second compound 3.16 µM, first compound 0.316 µM
[31] = second compound 10 µM, first compound 0.000999 µM
[32] = second compound 10 µM, first compound 0.00316 µM
[33] = second compound 10 µM, first compound 0.00999 µM
[34] = second compound 10 µM, first compound 0.0316 µM
[35] = second compound 10 µM, first compound 0.0999 µM
[36] = second compound 10 µM, first compound 0.316 µM
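Also: spheroids exposed to compounds for one week before readout.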
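For viability, T/C in this document: percent viability relative to DMSO vehicle wells taken as 100%.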

`Cc1[nH]c2ccccc2c1CCNCc1ccc(/C=C/C(=O)NO)cc1` + CN(C)c1ccc(Nc2c3ccc(NC(=O)CCN4CCCC4)cc3nc3cc(NC(=O)CCN4CCCC4)ccc23)cc1 showed an IC50 (second compound 0.0316 µM) of 40 nM, an IC50 (second compound 0.1 µM) of 35.1 nM and an IC50 (second compound 0.316 µM) of 19.7 nM. The IC50 (second compound 1 µM) was < 0.999 nM, the IC50 (second compound 3.16 µM) was < 0.999 nM and the IC50 (second compound 10 µM) was < 0.999 nM. For the same compound, the viability, T/C [1] was 104%, the viability, T/C [2] was 121% and the viability, T/C [3] was 101%. It also gave a viability, T/C [4] of 61.3%, a viability, T/C [5] of 8.25% and a viability, T/C [6] of 0.39%. The viability, T/C [7] was 119%, the viability, T/C [8] was 102% and the viability, T/C [9] was 95.4%. It also gave a viability, T/C [10] of 56.6%, a viability, T/C [11] of 7.42% and a viability, T/C [12] of 0.13%. It also gave a viability, T/C [13] of 79.9%, a viability, T/C [14] of 75.7% and a viability, T/C [15] of 74.9%. The viability, T/C [16] was 33.1%, the viability, T/C [17] was 5.76% and the viability, T/C [18] was 0.14%. The viability, T/C [19] was 48.6%, the viability, T/C [20] was 30.2% and the viability, T/C [21] was 33.6%. The viability, T/C [22] was 15.8%, the viability, T/C [23] was 2.82% and the viability, T/C [24] was 0.27%. It also gave a viability, T/C [25] of 6.7%, a viability, T/C [26] of 4.52% and a viability, T/C [27] of 7.77%. It also gave a viability, T/C [28] of 1.86%, a viability, T/C [29] of 0.59% and a viability, T/C [30] of 0.18%. For the same compound, the viability, T/C [31] was 0.17%, the viability, T/C [32] was 0.22% and the viability, T/C [33] was 0.54%. The viability, T/C [34] was 2%, the viability, T/C [35] was 0.38% and the viability, T/C [36] was 0.28%.
With `CCc1c2c(nc3ccc(O)cc13)-c1cc3c(c(=O)n1C2)COC(=O)[C@]3(O)CC` + Cc1[nH]c2ccc(F)cc2c1-c1nc2c3cccnc3c3ncccc3c2[nH]1 the IC50 (second compound 0.0316 µM) was 1.69 nM, the IC50 (second compound 0.1 µM) was 1.59 nM and the IC50 (second compound 0.316 µM) was 1.51 nM. The IC50 (second compound 1 µM) was 1.76 nM, the IC50 (second compound 3.16 µM) was 1.46 nM and the IC50 (second compound 10 µM) was < 0.999 nM. It also gave a viability, T/C [1] of 71.4%, a viability, T/C [2] of 23.9% and a viability, T/C [3] of 12.8%. For the same compound, the viability, T/C [4] was 8.37%, the viability, T/C [5] was 6.91% and the viability, T/C [6] was 4.31%. For the same compound, the viability, T/C [7] was 70.2%, the viability, T/C [8] was 19.9% and the viability, T/C [9] was 8.9%. The viability, T/C [10] was 10%, the viability, T/C [11] was 7.96% and the viability, T/C [12] was 3.98%. For the same compound, the viability, T/C [13] was 66.7%, the viability, T/C [14] was 18.4% and the viability, T/C [15] was 16.5%. For the same compound, the viability, T/C [16] was 8.55%, the viability, T/C [17] was 6.58% and the viability, T/C [18] was 4.87%. The viability, T/C [19] was 75.8%, the viability, T/C [20] was 22.1% and the viability, T/C [21] was 14.6%. For the same compound, the viability, T/C [22] was 9.41%, the viability, T/C [23] was 6.65% and the viability, T/C [24] was 5.39%. The viability, T/C [25] was 65.4%, the viability, T/C [26] was 18.1% and the viability, T/C [27] was 8.2%. The viability, T/C [28] was 8.72%, the viability, T/C [29] was 6.44% and the viability, T/C [30] was 4.32%. For the same compound, the viability, T/C [31] was 37.7%, the viability, T/C [32] was 14.2% and the viability, T/C [33] was 9.41%. It also gave a viability, T/C [34] of 9.06%, a viability, T/C [35] of 5.65% and a viability, T/C [36] of 7.19%.
